# Tested on: sAPPβ release in SH-SY5Y cells
# Assay: sAPPβ release assay
# Assay type: cell-based
# Conditions: 17 h incubation
# Procedure: Thaw cells and seed at a conc. of around 10000 cells/well in DMEM/F-12 with Glutamax, 10% FCS and 1% non-essential amino acids to a 384-well tissue culture treated plate, 100 μL cell susp/well. […] The cell medium was removed, followed by addition of 30 μL compound diluted in DMEM/F-12 with Glutamax, 10% FCS, 1% non-essential amino acids and 1% PeSt to a final conc. of 1% DMSO. The compounds were incubated with the cells for 17 h (overnight) at 37° C., 5% CO2. Meso Scale Discovery (MSD) plates were used for the detection of sAPPIβ release. MSD sAPPIβ plates were blocked in 1% BSA in Tris wash buffer (40 μL/well) for 1 h on shake at r.t. and washed 1 time in Tris wash buffer (40 μL/well). 20 μL of medium was transferred to the pre-blocked and washed MSD sAPPIβ microplates, and the cell plates were further used in an ATP assay to measure cytotoxicity. The MSD plates were incubated with shaking at r.t. for 2 h and the media discarded. 10 μL detection antibody was added (1 nM) per well followed by incubation with shaking at r.t. for 2 h and then discarded. 40 μL Read Buffer was added per well and the plates were read in a SECTOR Imager.
row,SMILES,IC50 [nM]
1,"CCC1=NC2(N=C1N)c1cc(-c3cncc(Cl)c3)ccc1C[C@]21CC[C@@H](OC)CC1 (single isomer, unassigned; isomer 1) [Example 66 Isomer 1, (1r,4r)-6′-(5-chloropyridin-3-yl)-5″-ethyl-4-methoxy-3′H-dispiro[cyclohexane-1,2′-indene-1′,2″-imidazol]-4″-amine]",1.6
2,"CC#Cc1cncc(-c2ccc3c(c2)C2(N=C(N)C(CC)=N2)[C@]2(CC[C@H](OC)CC2)C3)c1 (single isomer, unassigned; isomer 1) [Example 68 Isomer 1, (1r,4r)-5″-ethyl-4-methoxy-6′-[5-(prop-1-yn-1-yl)pyridin-3-yl]-3′H-dispiro[cyclohexane-1,2′-indene-1′,2″-imidazol]-4″-amine]",0.38
3,"CCC1=NC2(N=C1N)c1cc(-c3cccc(C#N)c3)ccc1C[C@]21CC[C@@H](OC)CC1 (single isomer, unassigned; isomer 1) [Example 71 Isomer 1, 3-[(1r,4r)-4″-amino-5″-ethyl-4-methoxy-3′H-dispiro-[cyclohexane-1,2′-indene-1′,2″-imidazol]-6′-yl]benzonitrile]",5.2
4,"CCC1=NC2(N=C1N)c1cc(-c3cccc(C#N)c3)ccc1C[C@]21CC[C@@H](OC)CC1 (single isomer, unassigned; isomer 2) [Example 71 Isomer 2, 3-[(1r,4r)-4″-amino-5″-ethyl-4-methoxy-3′H-dispiro-[cyclohexane-1,2′-indene-1′,2″-imidazol]-6′-yl]benzonitrile]",763

# Target: human β-Secretase (soluble part, sBACE-Fc) (Homo sapiens (Human), UniProt P56817)
# Sequence (P56817 22-460): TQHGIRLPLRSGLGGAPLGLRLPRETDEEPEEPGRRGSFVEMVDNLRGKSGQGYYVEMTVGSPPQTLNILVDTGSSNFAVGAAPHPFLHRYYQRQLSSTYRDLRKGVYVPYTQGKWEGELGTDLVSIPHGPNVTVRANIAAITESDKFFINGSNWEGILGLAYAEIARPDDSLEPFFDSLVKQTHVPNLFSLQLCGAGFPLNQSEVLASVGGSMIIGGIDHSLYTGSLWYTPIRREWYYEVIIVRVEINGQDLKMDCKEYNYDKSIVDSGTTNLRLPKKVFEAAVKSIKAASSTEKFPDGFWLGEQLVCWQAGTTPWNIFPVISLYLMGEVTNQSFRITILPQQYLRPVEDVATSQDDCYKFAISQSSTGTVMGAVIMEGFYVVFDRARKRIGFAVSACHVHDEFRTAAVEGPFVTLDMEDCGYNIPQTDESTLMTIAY
# Assay: TR-FRET assay
# Assay type: biochemical
# Conditions: standard TR-FRET assay, 15 minutes reaction at r.t.
# Procedure: The β-secretase enzyme used in the TR-FRET is prepared as follows:
# The cDNA for the soluble part of the human β-Secretase (AA 1-AA 460) was cloned using the ASP2-Fc10-1-IRES-GFP-neoK mammalian expression vector. The gene was fused to the Fc domain of IgG1 (affinity tag) and stably cloned into HEK 293 cells.
# The robotic systems Biomek FX and Velocity 11 were used for all liquid handling and the enzyme and substrate solutions were kept on ice until they were placed in the robotic system. Enzyme (9 μl) was added to the plate then 1 μl of compound in dimethylsulphoxide was added, mixed and pre-incubated for 10 minutes. Substrate (10 μl) was then added, mixed and the reaction proceeded for 15 minutes at r.t. The reaction was stopped with the addition of Stop solution (7 μl, NaAcetate, pH 9). […] The dimethylsulphoxide control, instead of test compound, defined the 100% activity level and 0% activity was defined by wells lacking enzyme (replaced with reaction buffer).
row,IC50 [nM],SMILES
1,34,"CO[C@H]1CC[C@]2(CC1)Cc1ccc(-c3ccc(F)cc3F)cc1[C@@]21N=C(C)C(N)=N1 [Example 103, (1r,1′R,4R)-6′-(2,4-Difluorophenyl)-4-methoxy-5″-methyl-3′H-dispiro[cyclohexane-1,2′-indene-1′,2″-imidazol]-4″-amine]"
2,842,"CCO[C@H]1CC[C@]2(CC1)Cc1ccc(Br)cc1C21N=C(C)C(N)=N1 (stereo partly drawn) [Example 130, (1r,4r)-6′-Bromo-4-ethoxy-5″-methyl-3′H-dispiro[cyclohexane-1,2′-indene-1′,2″-imidazol]-4″-amine]"

# — US9918985B2, “Compounds and their use as BACE inhibitors” (ASTRAZENECA AB, priority 2010, dated 2018)
